Consider three compounds from patent US20090087389A1, “DEHYDROEPIAN[…] DIHYDRATE INHALATION COMPOSITIONS AND METHODS” ([…] PHARMACEUTICALS, LLC., priority 2002, published 2009).

The structures appear in SMILES notation.

For data set [1] the following is noted: solid state; cited from earlier work.
The nature of data set [2]: Stability at 50° C. with and without lactose (DHEA formation by HPLC). The settings on record: 1 week at 50° C. It is filed as physicochemical. An excerpt: These conditions were used to stress the formulation in order to predict its long-term stability results.
The primary degradant is dehydroepiandrosterone or DHEA. […] The materials on accelerated storage become more cohesive with time as evidenced by clumping during sample weighing for chemical analysis. […] This is a considerable disadvantage since lactose is the most commonly used inhalation excipient for dry powder formulations. Continuing with the virtually anhydrous form would mean limiting formulations to neat powder or undertaking more comprehensive safety studies to use a novel excipient.

Data set [3] is described as follows: Nebulizer studies (Pari ProNeb Ultra / LC Plus, AS-6 impactor, by-pass collector). The settings on record: 0.12% NaCl; no precipitate during nebulization.
Method: Nebulizer Studies. […] The nebulizer is filled with 5 mL of solution and nebulization is continued until the output became visually insignificant (4½ to 5 min.). Nebulizer solutions are tested using a California Instruments AS-6 6-stage impactor with a USP throat. The impactor is run at 30 L/min for 8 seconds to collect a sample following one minute of nebulization time. At all other times during the experiment, the aerosol is drawn through the by-pass collector at approximately 33 L/min. The collection apparatus, nebulizer, and impactor are rinsed with mobile phase and assayed by HPLC. […] This volume is selected as the practical upper limit for use in a clinical study.

For the compound `C[C@]12CC[C@H](OS(=O)(=O)[O-])CC1=CC[C@@H]1[C@@H]2CC[C@]2(C)C(=O)CC[C@@H]12.[Na+]` [Anhydrous DHEA-S], the hygroscopicity entry in data set [1] was “very hygroscopic”.

Consider `CC12CCC3C(CC=C4CC(OS(=O)(=O)[O-])CCC43C)C1CCC2=O.[Na+]` (stereo not drawn) [DHEA-S dihydrate, dehydroepiandrosterone sodium sulfate dihydrate], for which the color after storage entry in data set [2] was “no change in color”.

`C[C@]12CC[C@H](OS(=O)(=O)[O-])CC1=CC[C@@H]1[C@@H]2CC[C@]2(C)C(=O)CC[C@@H]12.[Na+]` [DHEA-S, sodium dehydroepiandrostenone sulfate]: in data set [3], the “highest solution concentration for a proof of concept clinical trial formulation” value was “approximately 7.5 mg/mL”.
